For 75 molecules, LC retention time results are on record in the RepoRT retention time repository.

The nature of the series: Waters ACQUITY UPLC BEH C18, 100 × 2.1 mm, 1.7 µm, 40 °C, 0.3 to 0.4 mL/min, estimated dead time 0.63 min; A: water + 0.1% formic acid; B: methanol + 0.1% formic acid; gradient (min/%B) 0/0.5 0.1/0.5 10/80 10.1/99.5 12/99.5. The conditions noted are these: stereoisomer not certain.

For the molecule `CC1OC(Oc2cc3c(O)cc(O)cc3[o+]c2-c2ccc(O)c(O)c2)C(O)C(O)C1O` (stereo not given), the LC retention time was 3.18 min.
Under `CC(=O)OCC1OC(Oc2cc(O)c3c(=O)cc(-c4ccc(O)cc4)oc3c2)C(O)C(O)C1O` (stereo not given) stands 5.14 min; under `COc1cc(C=CC(=O)NCCCCC(N)C(=O)O)ccc1O` (stereo not given), 3.08 min.
As to `COC(=O)C1=COC(OC2OC(CO)C(O)C(O)C2O)C2C1CC(O)C2C` (stereo not given), the LC retention time was 3.36 min.
With `O=C(O)CCC(NCC1(O)OCC(O)C(O)C1O)C(=O)NC(Cc1ccccc1)C(=O)O` (stereo not given), the LC retention time was 3.16 min.
As for `O=c1oc2cc(O)ccc2c2oc3cc(O)ccc3c12`, the LC retention time was 5.97 min.
Take `COC(=O)C1C2CC3c4[nH]c5cc(OC)ccc5c4CCN3CC2CC(OC(=O)c2cc(OC)c(OC)c(OC)c2)C1OC` (stereo not given): the LC retention time is 6.12 min.
Under `O=c1ccc2ccc(O)c(O)c2o1` stands 3.65 min; under `CC1(C)CCC2(C(=O)O)C(O)CC3(C)C(=CCC4C5(C)CCC(OC6OC(CO)C(O)C(O)C6O)C(C)(C)C5CCC43C)C2C1` (stereo not given), 7.33 min.
`COc1cc(CC2COC(=O)C2Cc2ccc(O)c(OC)c2)ccc1O` (stereo not given): the LC retention time is 5.96 min.
Consider `CCC1CN2CCc3c([nH]c4ccccc34)C2CC1C(=COC)C(=O)OC` (stereo not given), for which the LC retention time is 5.85 min.
With `CC1OC(OCC2OC(Oc3cc4c(O)cc(O)cc4[o+]c3-c3ccc(O)c(O)c3)C(O)C(O)C2O)C(O)C(O)C1O` (stereo not given), the LC retention time is 2.94 min.
Under `Oc1cc(O)c2cc(OC3OCC(O)C(O)C3O)c(-c3ccc(O)c(O)c3)[o+]c2c1` (stereo not given) stands 3.01 min; under `O=C(O)c1cc(O)c2c(c1)C(C1c3cc(C(=O)O)cc(O)c3C(=O)c3c(OC4OC(CO)C(O)C(O)C4O)cccc31)c1cccc(OC3OC(CO)C(O)C(O)C3O)c1C2=O` (stereo not given), 3.82 min.
Regarding `CN1CCc2cc3c(cc2C(=O)Cc2ccc4c(c2C1)OCO4)OCO3`, the LC retention time was 4.36 min.
Under `CC(C)(CO)C(O)C(=O)NCCC(=O)O` (stereo not given) stands 2.48 min.
The figure for `O=C(C=Cc1ccc(O)cc1)NCCCCNCCCNC(=O)C=Cc1ccc(O)cc1` is 3.83 min.
Take `COc1cc(C=CC(=O)OC2C(O)CC(O)(C(=O)O)CC2O)ccc1O` (stereo not given): the LC retention time was 3.74 min.
With `C=CC1C(OC2OC(CO)C(O)C(O)C2O)OC(O)=C2C(=O)N3CCc4c([nH]c5ccccc45)C3=CC21` (stereo not given), the LC retention time is 5.07 min.
For `O=C(O)C1OC(Oc2cc3oc(-c4ccccc4)cc(=O)c3c(O)c2O)C(O)C(O)C1O` (stereo not given), the LC retention time is 4.49 min.
Turning to `CCC(C)C(=O)OC1C(O)C2C(CN3CC(C)CCC3C2(C)O)C2CC34OC5(O)C(OC(=O)C(C)(O)C(C)O)CCC3(C)C5CC(O)C4C21O` (stereo not given), the LC retention time was 4.65 min.
Consider `COc1cc(C=CC(=O)NCCCCNC(=O)C=Cc2ccc(O)c(OC)c2)ccc1O`, for which the LC retention time was 5.19 min.
In the case of `Oc1cc(O)c2c(c1)OC(c1cc(O)c(O)c(O)c1)C(O)C2` (stereo not given), the LC retention time is 2.49 min.
For `COc1ccc(C2CC(=O)c3c(O)cc(OC4OC(CO)C(O)C(O)C4OC4OC(C)C(O)C(O)C4O)cc3O2)cc1O` (stereo not given), the LC retention time is 4.59 min.
The figure for `COc1ccc2c3c([nH]c2c1)C1CC2C(CC(O)C(OC)C2C(=O)O)CN1CC3` (stereo not given) is 3.89 min; for `CC1OC(OCC2OC(Oc3cc4c(O)cc(O)cc4[o+]c3-c3ccc(O)c(O)c3)C(OC3OC(CO)C(O)C(O)C3O)C(O)C2O)C(O)C(O)C1O` (stereo not given) it is 2.75 min.
With `O=CC=Cc1ccc(O)cc1`, the LC retention time was 4.53 min.
For the molecule `COc1c(O)cc2c(c1O)C1OC(CO)C(O)C(O)C1OC2=O` (stereo not given), the LC retention time was 2.86 min.
For `CC1OC(OC2C(Oc3cc(O)c4c(=O)cc(-c5ccc(O)cc5)oc4c3)OC(CO)C(O)C2O)C(O)C(O)C1O` (stereo not given), the LC retention time is 4.34 min.
`CS(=O)CCCCCCCCN` (stereo not given): the LC retention time was 2.49 min.
Under `CC1OC(Oc2c(-c3ccc(O)c(O)c3)oc3cc(O)cc(O)c3c2=O)C(OC2OC(CO)C(O)C(O)C2O)C(O)C1O` (stereo not given) stands 4.15 min; under `CCC1C2CC3C4N(C)c5ccccc5C45CC(C2C5O)N3C1O` (stereo not given), 4.13 min.
As to `O=C(O)CC(=O)OCC1OC(Oc2c(-c3ccc(O)c(O)c3)oc3cc(OC4OC(CO)C(O)C(O)C4O)cc(O)c3c2=O)C(O)C(O)C1O` (stereo not given), the LC retention time was 3.11 min.
For `CSCCCCCCCN=C=S`, the LC retention time was 9.19 min.
In the case of `CC(C)C(O)(C(=O)OCC1CCN2CCCC12)C(C)O` (stereo not given), the LC retention time is 3.05 min.
For `O=C(O)C(Cc1ccccc1)NCC1(O)OC(CO)C(O)C1O` (stereo not given), the LC retention time is 2.33 min.
With `CCC(O)(C(=O)O)c1cc2n(c(=O)c1COC(C)=O)Cc1cc3ccccc3nc1-2` (stereo not given), the LC retention time is 5.4 min.
Under `COc1ccc(C(C)=O)c(O)c1` stands 6.57 min.
The figure for `CC(CCC1(O)OC2CC3C4CC=C5CC(O)CC(OC6OCC(O)C(OC7OCC(O)C(O)C7O)C6OC6OC(C)C(O)C(O)C6O)C5(C)C4CCC3(C)C2C1C)COC1OC(CO)C(O)C(O)C1O` (stereo not given) is 4.15 min; for `CCC12C=CCN3CCC4(C(=C(C(=O)OC)C1)Nc1ccccc14)C32` (stereo not given) it is 5.2 min.
For `CC(C)=CCc1c(O)ccc(C(=O)C=Cc2ccc(O)cc2)c1O`, the LC retention time is 8.93 min.
For the molecule `CC(C)CC(NC(=O)CN)C(=O)O` (stereo not given), the LC retention time is 2.5 min.
As to `CC1=C2C(=O)C3C(CC=C4CC(OC5OC(CO)C(O)C(O)C5O)CCC43C)C2CCC12OC1CC(C)CNC1C2C` (stereo not given), the LC retention time is 4.01 min.
Take `CC1CCC2C(C)C3C(CC4C5CC=C6CC(OC7OC(CO)C(OC8OC(C)C(O)C(O)C8O)C(O)C7OC7OC(C)C(O)C(O)C7O)CCC6(C)C5CCC43C)N2C1` (stereo not given): the LC retention time is 5.01 min.
The figure for `COc1cc(C(=O)OC2CC3CCC(C2)N3)ccc1O` (stereo not given) is 3.27 min; for `C=CCSCC(NC(=O)CCC(N)C(=O)O)C(=O)O` (stereo not given) it is 2.98 min.
Regarding `COc1ccccc1C=CC(=O)O`, the LC retention time was 6.12 min.
In the case of `O=c1cc(-c2ccc(O)cc2)oc2cc(O)ccc12`, the LC retention time is 7.38 min.
With `C=CC1C(OC2OC(CO)C(O)C(O)C2O)OC=C(C(=O)O)C1Cc1nccc2c1[nH]c1ccc(O)cc12` (stereo not given), the LC retention time is 3.69 min.
Turning to `OCC1OC(Oc2ccc(O)cc2)C(O)C(O)C1O` (stereo not given), the LC retention time is 1.88 min.
Consider `O=C(O)C(Cc1ccc(O)cc1)NCC1(O)OC(CO)C(O)C1O` (stereo not given), for which the LC retention time is 1.82 min.
On to `O=c1c(OC2OCC(O)C(O)C2O)c(-c2ccc(O)c(O)c2)oc2cc(O)cc(O)c12` (stereo not given), for which the LC retention time was 4.17 min.
For `O=C(O)CCSCCC(=O)O`, the LC retention time is 2.06 min.
For `COc1cc(C=CC(=O)N2CCC=CC2=O)cc(OC)c1OC`, the LC retention time is 6.83 min.
In the case of `CC(C)=CCCC(C)(OC1OC(CO)C(O)C(O)C1O)C1CCC2(C)C1C(O)CC1C3(C)CCC(O)C(C)(C)C3C(OC3OC(CO)C(O)C(O)C3OC3OC(C)C(O)C(O)C3O)CC12C` (stereo not given), the LC retention time was 4.79 min.
For `Nc1[nH]c(=O)[nH]c(=O)c1OC1OC(CO)C(O)C(O)C1O` (stereo not given), the LC retention time was 2.01 min.
For `COc1cc(-c2cc(=O)c3c(O)cc(OC4OC(C(=O)O)C(O)C(O)C4OC4OC(COC(=O)C=Cc5ccc(O)cc5)C(O)C(O)C4O)cc3o2)cc(OC)c1O` (stereo not given), the LC retention time was 4.9 min.
The figure for `OC1CCN2Cc3ccccc3N=C12` (stereo not given) is 2.55 min; for `CC1=C(C)C(=O)OC(C(C)C2(O)CCC3C4C5OC5C5(O)CC=CC(=O)C5(C)C4CCC32C)C1` (stereo not given) it is 6.82 min; for `COc1ccc(-c2cc(=O)c3c(OC)cc(OC)c(-c4cc(-c5cc(=O)c6c(OC)cc(OC)cc6o5)ccc4OC)c3o2)cc1` it is 7.39 min.
The figure for `COc1cc(C(O)C(COC2OC(CO)C(O)C(O)C2O)Oc2c(OC)cc(-c3cc(=O)c4c(O)cc(O)cc4o3)cc2OC)ccc1O` (stereo not given) is 4.57 min.
Under `Cc1ccc([N+](=O)[O-])cc1N` stands 2.34 min; under `CC1(C)CC2C3=CCC4C5(C)CCC(OC6OC(C(=O)O)C(O)C(O)C6OC6OC(CO)C(O)C(O)C6OC6OC(CO)C(O)C(O)C6O)C(C)(CO)C5CCC4(C)C3(C)CCC2(C)CC1OC1OCC(O)C(O)C1O` (stereo not given), 5.5 min; under `CC1C(=O)OC2C(O)C34C5OC(=O)C3(OC3OC(=O)C(O)C34C(C(C)(C)C)C5O)C12O` (stereo not given), 4.33 min.
With `CC1(C)CC(O)C2(C)CCC3(C)C(=CCC4C5(C)CCC(OC6OC(C(=O)O)C(O)C(O)C6OC6OC(CO)C(O)C(O)C6OC6OC(CO)C(O)C(O)C6O)C(C)(CO)C5CCC43C)C2C1` (stereo not given), the LC retention time is 6.97 min.
As to `CCCCCCCCCCCCCCCC(=O)OCC(O)COP(=O)(O)OCCNC1OC(CO)C(O)C(O)C1O` (stereo not given), the LC retention time was 9.72 min.
The figure for `NC(Cc1ccc(O)cc1)C(=O)O` (stereo not given) is 1.79 min; for `Oc1ccc(CCc2cc(O)cc(O)c2)cc1` it is 5.15 min; for `COc1cc2c(cc1O)CC1c3c(cc(O)c(OC)c3-2)CCN1C` (stereo not given) it is 3.35 min.
Consider `O=c1c(OC2OC(CO)C(O)C(O)C2O)c(-c2ccc(OC3OC(CO)C(O)C(O)C3O)c(O)c2)oc2cc(O)cc(O)c12` (stereo not given), for which the LC retention time is 3.54 min.
With `COCC12CN(C)C3C4C(OC)C1C3(C(OC)CC2O)C1CC2(O)C(OC)C(O)C4(OC(C)=O)C1C2OC(=O)c1ccccc1` (stereo not given), the LC retention time was 5.61 min.
Turning to `CCCCCC=CC=CC(=O)CCCCCCCC(=O)O`, the LC retention time was 10.2 min.
With `NC(Cc1c[nH]c2ccccc12)C(=O)O` (stereo not given), the LC retention time is 2.8 min.
As for `C=CCNC(=O)C=Cc1ccc(O)c(OC)c1`, the LC retention time is 2.86 min.
The figure for `O=C(C=CC=Cc1ccc2c(c1)OCO2)N1CCCCC1` is 7.84 min.
